Reference: ChEMBL document CHEMBL1147168, “Quinuclidines as selective agonists for alpha-7 nicotinic acetylcholine receptors” (Bioorg Med Chem Lett, 2007)

Target: Neuronal acetylcholine receptor subunit alpha-7 (Homo sapiens, UniProt P36544)
Assay: Agonist activity at nAChR alpha-7 expressed in Xenopus oocytes
Assay type: functional, cell-based, Oocyte

Neuronal acetylcholine receptor subunit alpha-7, sequence (P36544 whole entry): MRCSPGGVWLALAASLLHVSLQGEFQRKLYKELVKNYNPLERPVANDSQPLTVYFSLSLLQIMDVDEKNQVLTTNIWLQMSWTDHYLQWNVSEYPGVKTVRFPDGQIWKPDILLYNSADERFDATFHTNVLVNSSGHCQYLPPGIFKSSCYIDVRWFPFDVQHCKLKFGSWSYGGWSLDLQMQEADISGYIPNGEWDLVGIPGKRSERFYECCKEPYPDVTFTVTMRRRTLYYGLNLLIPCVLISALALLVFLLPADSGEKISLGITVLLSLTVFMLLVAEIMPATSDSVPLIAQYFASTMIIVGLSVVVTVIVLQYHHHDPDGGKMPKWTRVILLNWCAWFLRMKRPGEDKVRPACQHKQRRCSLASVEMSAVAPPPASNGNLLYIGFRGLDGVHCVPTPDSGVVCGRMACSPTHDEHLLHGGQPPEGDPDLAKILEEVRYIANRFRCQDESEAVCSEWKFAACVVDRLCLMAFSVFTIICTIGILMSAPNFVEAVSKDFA

Compound | EC50
C(=C1\CN2CCC1CC2)/c1ccccc1 | 1500 nM
COc1ccc(/C=C2/CN3CCC2CC3)cc1 | 1300 nM
